Test results reported in ChEMBL document CHEMBL1201862, “PubChem BioAssay data set” (2004).
The source made the active and inactive calls.

What was measured:
[1] = system: Streptococcus sp. 'group A'; assay: Streptococcus pyogenes SK(-)GAS viability under kanamycin – luminescence, BacTiterGlo, confirmation, counter-screen for streptokinase expression inhibitor project, dose response (AID 1900); assay type: functional, organism-based
[2] = molecular target: T1, Streptokinase A (Streptococcus pyogenes serotype M1, UniProt P10520); assay: viability-normalized secreted streptokinase activity reduction – plasminogen activation absorbance, OD405, dose response (AID 1914); assay type: functional, Streptococcus pyogenes M1 GAS;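 note: secreted streptokinase activity via plasminogen activation per viability signal from cell pellet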
T1 sequence (P10520 whole entry): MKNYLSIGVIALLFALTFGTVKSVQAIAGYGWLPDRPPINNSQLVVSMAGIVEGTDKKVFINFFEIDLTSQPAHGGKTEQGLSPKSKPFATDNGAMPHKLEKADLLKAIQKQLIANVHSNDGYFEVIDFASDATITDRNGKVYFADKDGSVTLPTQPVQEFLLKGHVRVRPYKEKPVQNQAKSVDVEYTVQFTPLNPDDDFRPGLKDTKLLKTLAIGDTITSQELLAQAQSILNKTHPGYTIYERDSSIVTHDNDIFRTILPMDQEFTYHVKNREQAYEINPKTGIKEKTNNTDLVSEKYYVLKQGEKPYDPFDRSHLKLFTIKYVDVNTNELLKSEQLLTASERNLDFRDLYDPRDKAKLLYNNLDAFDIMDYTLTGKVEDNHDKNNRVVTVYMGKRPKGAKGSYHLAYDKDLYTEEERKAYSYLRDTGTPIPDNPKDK

[3] = system: Streptococcus; assay: GAS UMAA2166 growth inhibition – luminescence, BacTiterGlo, counter-screen for streptokinase expression inhibitor project, dose response (AID 1915); assay type: functional, organism-based;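 note: potency for reduction of bacterial viability or growth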
[4] = molecular target: T2, Short transient receptor potential channel 4 (Mus musculus, UniProt Q9QUQ5); assay: block of DAMGO-driven TRPC4 calcium entry – cell-based, HEK293 TRPC4/mu-opioid, Fluo-4 calcium, dose response (AID 434942); assay type: functional;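 note: potency of inhibitors blocking the TRPC4 calcium response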
T2 sequence (Q9QUQ5 whole entry): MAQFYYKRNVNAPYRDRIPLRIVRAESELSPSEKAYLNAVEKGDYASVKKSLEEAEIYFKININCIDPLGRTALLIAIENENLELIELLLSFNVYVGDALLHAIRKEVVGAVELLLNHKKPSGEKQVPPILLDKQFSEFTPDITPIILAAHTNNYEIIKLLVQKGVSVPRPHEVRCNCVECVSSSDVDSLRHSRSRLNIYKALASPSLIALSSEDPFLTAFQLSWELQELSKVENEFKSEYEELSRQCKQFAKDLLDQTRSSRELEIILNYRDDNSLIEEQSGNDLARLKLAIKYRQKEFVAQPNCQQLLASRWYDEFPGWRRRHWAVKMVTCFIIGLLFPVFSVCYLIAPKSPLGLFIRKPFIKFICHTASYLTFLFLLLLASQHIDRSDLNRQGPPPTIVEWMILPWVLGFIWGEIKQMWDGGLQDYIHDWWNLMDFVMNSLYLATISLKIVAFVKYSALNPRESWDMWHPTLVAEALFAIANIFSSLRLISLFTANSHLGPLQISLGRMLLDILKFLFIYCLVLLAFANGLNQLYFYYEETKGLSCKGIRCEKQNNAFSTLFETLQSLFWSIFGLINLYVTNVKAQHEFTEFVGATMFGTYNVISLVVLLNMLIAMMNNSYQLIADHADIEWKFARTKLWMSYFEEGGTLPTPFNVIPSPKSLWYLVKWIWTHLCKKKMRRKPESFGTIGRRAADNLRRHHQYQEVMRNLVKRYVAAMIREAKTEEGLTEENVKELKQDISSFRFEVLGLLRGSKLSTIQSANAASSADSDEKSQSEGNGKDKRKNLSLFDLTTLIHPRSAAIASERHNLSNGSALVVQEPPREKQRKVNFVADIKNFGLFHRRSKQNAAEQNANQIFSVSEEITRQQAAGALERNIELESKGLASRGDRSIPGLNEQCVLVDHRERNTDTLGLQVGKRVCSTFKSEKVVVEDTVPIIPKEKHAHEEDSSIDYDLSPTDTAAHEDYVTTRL

[5] = Vero E6 cell cytotoxicity, dose response, cytotoxicity control for non-replicating M. tuberculosis project, secondary assay (AID 492998); assay type: functional, VeroE6; settings: Vero C1008
[6] = cells; assay type: functional
[7] = molecular target: Paired box protein Pax-8 (Homo sapiens, UniProt Q06710); assay: PAX8 transcriptional activity inhibition in RMG-I – RMG-I cells, luciferase, cherry-pick, dose response (AID 687027); assay type: functional, cell-based;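 note: luciferase reporter driven by Pax8 target thyroperoxidase promoter measured by SteadyGlo luminescence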
Sequence of Paired box protein Pax-8 (Q06710 whole entry): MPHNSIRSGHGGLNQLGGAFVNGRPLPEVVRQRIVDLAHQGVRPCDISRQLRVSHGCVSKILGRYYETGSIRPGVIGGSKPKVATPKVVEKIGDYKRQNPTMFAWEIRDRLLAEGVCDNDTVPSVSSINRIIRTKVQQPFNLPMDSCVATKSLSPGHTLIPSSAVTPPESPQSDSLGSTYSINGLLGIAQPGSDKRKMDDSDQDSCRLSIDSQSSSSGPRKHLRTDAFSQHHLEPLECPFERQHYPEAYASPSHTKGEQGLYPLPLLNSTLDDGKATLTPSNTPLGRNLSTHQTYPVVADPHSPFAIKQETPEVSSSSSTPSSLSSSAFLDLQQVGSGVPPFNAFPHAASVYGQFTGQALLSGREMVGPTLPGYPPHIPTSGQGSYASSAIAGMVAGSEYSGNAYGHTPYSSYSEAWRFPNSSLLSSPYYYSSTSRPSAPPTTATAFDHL

[8] = OVCAR-3 cell viability loss – plate reader, dry powder samples, PAX8 inhibitor project, dose response (AID 743044); assay type: functional, cell-based
[9] = OVCAR8 cell viability loss – plate reader, dry powder samples, PAX8 project, dose response (AID 743197); assay type: functional, cell-based; settings: OVCAR-8
[10] = IGROV1 cell killing – plate reader, dry powder samples, PAX8 inhibitor project, dose response (AID 743043); assay type: functional, cell-based; settings: IGROV-1
[11] = molecular target: T3, Replicative DNA helicase DnaB (Mycobacterium tuberculosis, UniProt P9WMR3); assay: DnaB intein splicing inhibitors, dose response, biochemical, cell-free fluorescence (AID 449749); assay type: functional
T3 sequence (P9WMR3 whole entry): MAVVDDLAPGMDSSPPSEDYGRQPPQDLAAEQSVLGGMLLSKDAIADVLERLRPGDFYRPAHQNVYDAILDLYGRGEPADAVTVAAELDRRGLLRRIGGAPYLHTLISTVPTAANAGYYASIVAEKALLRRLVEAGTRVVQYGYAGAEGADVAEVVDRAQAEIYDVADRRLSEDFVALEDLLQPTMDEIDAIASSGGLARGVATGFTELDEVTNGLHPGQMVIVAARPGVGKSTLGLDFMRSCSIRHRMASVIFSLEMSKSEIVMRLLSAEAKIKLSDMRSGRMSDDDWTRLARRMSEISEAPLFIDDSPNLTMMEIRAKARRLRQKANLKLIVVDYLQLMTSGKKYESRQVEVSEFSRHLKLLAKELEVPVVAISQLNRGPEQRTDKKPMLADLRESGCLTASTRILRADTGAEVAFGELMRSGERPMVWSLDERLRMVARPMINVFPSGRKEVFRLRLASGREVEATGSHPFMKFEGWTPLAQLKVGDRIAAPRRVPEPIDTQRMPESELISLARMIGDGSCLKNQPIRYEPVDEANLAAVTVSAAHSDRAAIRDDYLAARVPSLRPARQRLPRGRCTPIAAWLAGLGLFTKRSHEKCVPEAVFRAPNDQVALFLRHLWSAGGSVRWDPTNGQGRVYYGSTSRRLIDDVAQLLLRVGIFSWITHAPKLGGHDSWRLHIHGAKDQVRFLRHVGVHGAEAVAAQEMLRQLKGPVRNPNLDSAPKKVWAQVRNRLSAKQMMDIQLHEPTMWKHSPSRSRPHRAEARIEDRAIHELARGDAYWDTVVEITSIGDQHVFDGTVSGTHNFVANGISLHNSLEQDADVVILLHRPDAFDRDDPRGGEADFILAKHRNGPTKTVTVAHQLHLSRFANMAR

[12] = molecular target: T4, Protein RecA (Mycobacterium tuberculosis, UniProt P9WHJ3); assay: Fluorescence Cell-Free Homogeneous Dose Retest to Identify Inhibitors of RecA-Intein Splicing Activity. [Related pubchem assays (depositor defined):AID2097, AID2223, AID489010, AID492950]; assay type: functional
T4 sequence (P9WHJ3 whole entry): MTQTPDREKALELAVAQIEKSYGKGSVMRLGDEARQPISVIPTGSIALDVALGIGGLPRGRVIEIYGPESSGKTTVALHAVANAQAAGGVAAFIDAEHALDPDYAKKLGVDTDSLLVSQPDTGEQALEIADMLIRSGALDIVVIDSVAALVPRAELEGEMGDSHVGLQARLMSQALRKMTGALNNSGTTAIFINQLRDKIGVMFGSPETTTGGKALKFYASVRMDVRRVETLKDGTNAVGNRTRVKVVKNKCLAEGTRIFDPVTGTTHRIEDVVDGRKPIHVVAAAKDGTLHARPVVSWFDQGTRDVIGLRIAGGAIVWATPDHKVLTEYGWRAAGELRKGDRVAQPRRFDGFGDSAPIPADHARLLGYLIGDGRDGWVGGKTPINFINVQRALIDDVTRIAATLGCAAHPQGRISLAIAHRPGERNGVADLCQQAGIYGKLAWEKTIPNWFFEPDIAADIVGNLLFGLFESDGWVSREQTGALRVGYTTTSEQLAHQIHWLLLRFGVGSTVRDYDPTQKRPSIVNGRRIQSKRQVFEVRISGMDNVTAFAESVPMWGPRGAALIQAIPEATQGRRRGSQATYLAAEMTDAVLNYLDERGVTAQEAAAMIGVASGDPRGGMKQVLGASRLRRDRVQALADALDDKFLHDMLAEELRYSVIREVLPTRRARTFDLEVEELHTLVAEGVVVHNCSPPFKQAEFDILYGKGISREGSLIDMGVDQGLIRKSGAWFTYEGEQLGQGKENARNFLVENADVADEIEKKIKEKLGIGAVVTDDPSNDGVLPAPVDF

[13] = molecular target: T5, Histone-lysine N-methyltransferase NSD2 (Homo sapiens, UniProt O96028); assay type: biochemical
T5 sequence (O96028 whole entry): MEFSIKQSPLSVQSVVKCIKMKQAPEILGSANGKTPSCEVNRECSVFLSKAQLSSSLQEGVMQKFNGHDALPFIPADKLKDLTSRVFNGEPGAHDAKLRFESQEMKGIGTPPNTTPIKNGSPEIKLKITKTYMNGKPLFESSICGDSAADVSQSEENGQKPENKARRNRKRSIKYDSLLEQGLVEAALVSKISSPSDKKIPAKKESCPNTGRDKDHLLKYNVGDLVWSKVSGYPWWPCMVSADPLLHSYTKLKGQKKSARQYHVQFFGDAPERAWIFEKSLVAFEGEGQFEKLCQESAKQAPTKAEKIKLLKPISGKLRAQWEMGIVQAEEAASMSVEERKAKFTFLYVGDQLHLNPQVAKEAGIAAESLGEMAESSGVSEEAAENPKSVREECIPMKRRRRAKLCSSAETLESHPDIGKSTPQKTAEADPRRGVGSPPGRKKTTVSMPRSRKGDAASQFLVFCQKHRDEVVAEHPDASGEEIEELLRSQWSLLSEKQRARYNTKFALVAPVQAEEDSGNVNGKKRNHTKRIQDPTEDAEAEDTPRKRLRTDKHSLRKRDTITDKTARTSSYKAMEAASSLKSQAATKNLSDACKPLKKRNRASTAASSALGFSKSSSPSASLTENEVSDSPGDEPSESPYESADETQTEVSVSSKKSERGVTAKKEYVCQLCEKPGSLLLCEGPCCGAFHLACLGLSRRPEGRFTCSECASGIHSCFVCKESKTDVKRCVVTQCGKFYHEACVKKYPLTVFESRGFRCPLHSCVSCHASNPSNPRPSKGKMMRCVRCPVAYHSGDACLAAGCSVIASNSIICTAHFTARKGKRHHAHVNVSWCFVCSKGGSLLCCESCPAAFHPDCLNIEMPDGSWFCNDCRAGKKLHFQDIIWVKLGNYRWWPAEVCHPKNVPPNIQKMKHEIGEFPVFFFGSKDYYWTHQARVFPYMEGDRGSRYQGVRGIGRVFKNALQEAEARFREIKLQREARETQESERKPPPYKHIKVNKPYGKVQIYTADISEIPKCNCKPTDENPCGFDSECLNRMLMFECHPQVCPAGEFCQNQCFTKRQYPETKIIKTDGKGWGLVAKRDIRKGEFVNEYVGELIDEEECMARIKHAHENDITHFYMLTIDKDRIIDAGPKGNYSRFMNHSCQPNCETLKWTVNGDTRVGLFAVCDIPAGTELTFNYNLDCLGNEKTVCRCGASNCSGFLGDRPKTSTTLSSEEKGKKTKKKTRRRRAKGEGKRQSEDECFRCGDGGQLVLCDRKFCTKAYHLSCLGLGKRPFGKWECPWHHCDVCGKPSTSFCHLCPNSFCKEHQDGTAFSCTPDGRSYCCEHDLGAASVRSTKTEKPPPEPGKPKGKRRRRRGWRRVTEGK

[14] = molecular target: Nonstructural protein 1 (Influenza A virus, UniProt Q194T2); assay type: functional, Influenza A virus (A/California/07/2009(H1N1))
Sequence of Nonstructural protein 1 (Q194T2 whole entry): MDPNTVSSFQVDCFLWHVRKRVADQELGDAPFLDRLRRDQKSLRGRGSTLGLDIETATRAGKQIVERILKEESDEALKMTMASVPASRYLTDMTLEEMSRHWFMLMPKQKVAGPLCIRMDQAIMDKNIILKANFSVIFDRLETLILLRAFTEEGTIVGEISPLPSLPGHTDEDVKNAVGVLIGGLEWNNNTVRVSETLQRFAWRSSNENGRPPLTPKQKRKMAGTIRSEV

[15] = THP-1 cell cytotoxicity, dose response, cytotoxicity control for non-replicating M. tuberculosis project (AID 489025); assay type: functional

Cc1ccc(Cn2c(Cc3ccccc3)nc3ccccc32)cc1
EC50 [1]: 12.5 µM (active) | EC50 [2]: > 150 µM (not active) | EC50 [3]: 61.3 µM (active) | EC50 [4]: 0.668 µM (active)

O=C(c1ccccc1)c1nc[nH]c1C(=O)Nc1ccccc1
CC50 [5]: > 20 µM (active) | IC50 [6]: 12.5 µM (active)

CC(=O)Oc1ccc(/C=C(\NC(=O)c2ccco2)C(=O)NCc2ccccc2)cc1
EC50 [4]: 1.68 µM (active)

COc1cc2c(cc1OC)C(C)N(CCc1ccc(Cl)cc1)CC2 (stereo not given)
EC50 [4]: 0.105 µM (active)

C[C@@H]1CN([C@@H](C)CO)C(=O)c2cc(NC(=O)c3ccccc3)ccc2O[C@@H](C)CCCCO[C@@H]1CN(C)Cc1ccc(C(F)(F)F)cc1
AC50 [7]: 9.74 µM (active) | AC50 [8]: 30.4 µM (active) | AC50 [9]: > 70 µM (inactive)

C[C@@H]1CCCCO[C@@H](CN(C)C(=O)Nc2cccc3ccccc23)[C@H](C)CN([C@H](C)CO)C(=O)c2cc(NS(=O)(=O)c3ccc(F)cc3)ccc2O1
AC50 [7]: 5.4 µM (active) | AC50 [10]: 45.5 µM (active) | AC50 [9]: > 70 µM (inactive)

C[C@H](CO)N1C[C@H](C)[C@H](CN(C)Cc2ccc(Cl)c(Cl)c2)OCCCC[C@H](C)Oc2ccc(NC(=O)Nc3ccc(C(F)(F)F)cc3)cc2C1=O
AC50 [7]: 5.3 µM (active) | AC50 [10]: 43.1 µM (active) | AC50 [9]: 63 µM (active)

Cc1cccc(S(=O)(=O)N2CC[C@@H]3[C@H](CO)N(C)c4ccc(C#Cc5ccc(F)cc5)cc4[C@@H]32)c1
AC50 [7]: 8.27 µM (active) | AC50 [10]: 41.8 µM (active) | AC50 [9]: > 60 µM (inactive)

Cc1[nH]n(-c2ccccc2)c(=O)c1C(C[N+](=O)[O-])c1ccc(Cl)cc1 (stereo not given)
AC50 [11]: 5.32 µM (active) | EC50 [12]: 3.22 µM (active) | AC50 [13]: 9.52 µM (active)

O=C(N/N=C/c1ccccc1O)c1cc[n+]([O-])cc1
IC50 [14]: 4.49 µM (active)

Cc1nn(C)cc1/C=N/NC(=O)c1sc2ccccc2c1Cl
CC50 [15]: > 40 µM (active)
